From ChEMBL document CHEMBL1138548, “Three-dimensional QSAR analyses of 1,3,4-trisubstituted pyrrolidine-based CCR5 receptor inhibitors” (Eur J Med Chem, 2008) come the findings set out here.

Structures are written as SMILES.

A word on the IC50: it is the point on the concentration scale where inhibition reaches its midpoint.

This test deals with C-C chemokine receptor type 5 (Homo sapiens, UniProt P51681). Nature of the test: biochemical. The test is classed as cell-based, CHO.
Sequence of C-C chemokine receptor type 5 (P51681 whole entry): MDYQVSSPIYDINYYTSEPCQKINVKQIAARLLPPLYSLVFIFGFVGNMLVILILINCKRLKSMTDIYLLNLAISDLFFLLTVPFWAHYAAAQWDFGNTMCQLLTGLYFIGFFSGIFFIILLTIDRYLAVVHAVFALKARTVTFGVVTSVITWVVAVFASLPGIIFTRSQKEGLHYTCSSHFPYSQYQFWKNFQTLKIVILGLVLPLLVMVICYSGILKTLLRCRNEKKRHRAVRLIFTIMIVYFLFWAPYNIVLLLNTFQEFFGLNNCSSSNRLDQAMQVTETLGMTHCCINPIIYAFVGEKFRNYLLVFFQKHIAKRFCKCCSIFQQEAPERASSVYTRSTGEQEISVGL

Description: Displacement of [125I]MIP1alpha from human CCR5 expressed in CHO cells

`CCc1nc(Cc2ccccc2)sc1C1CCN(C[C@H]2CN([C@H](CC3CCC3)C(=O)O)C[C@@H]2c2ccccc2)CC1`: the IC50 came out at 0.76 nM. This lies in the sub-nanomolar range.

Regarding `O=C(O)[C@@H](CC1CCC1)N1C[C@H](CN2CCC(c3cnc(Cc4ccccc4)s3)CC2)[C@@H](c2ccccc2)C1`, the IC50 came out at 0.23 nM.

For `O=C(O)[C@@H](C1CCCCC1)N1C[C@H](CN2CCC(c3cc(Cc4ccccc4)on3)CC2)[C@@H](c2ccccc2)C1`, inhibition was half-maximal at 1.2 nM (IC50). Compared with the last compound, the IC50 is about 5.2-fold higher.

With `CCn1nc(-c2ccc(CN)cc2)cc1C1CCN(C[C@H]2CN([C@@H](C(=O)O)C3CCCCC3)C[C@@H]2c2ccccc2)CC1`, the IC50 was 122 nM.

`O=C(O)[C@@H](CC1CC1)N1C[C@H](CN2CCC(c3cnc(Cc4ccccc4)s3)CC2)[C@@H](c2ccccc2)C1` returned a half-maximal inhibitory concentration (IC50) of 0.23 nM.

`O=C(O)[C@@H](CC1CCC1)N1C[C@H](CN2CCC(c3cn4cccnc4n3)CC2)[C@@H](c2cccc(F)c2)C1`: the IC50 is 200 nM.

Compound `O=C(O)[C@@H](C1CCCCC1)N1C[C@H](CN2CCC(c3cc(Cc4ccccc4)no3)CC2)[C@@H](c2ccccc2)C1` showed an IC50 of 0.8 nM. This IC50 is about 250-fold lower than that of the compound before.

In turn, `CCc1nc(Cc2ccccc2)sc1C1CCN(C[C@H]2CN([C@H](CC(C)C)C(=O)O)C[C@@H]2c2ccccc2)CC1` came in with an IC50 of 1 nM.

As to `CC(C)C[C@H](C(=O)O)N1C[C@H](CN2CCC(CCC(F)(F)c3ccc(F)cc3)CC2)[C@@H](c2cccc(F)c2)C1`, the IC50 stood at 0.5 nM.

The compound `O=C(O)[C@@H](C1CCCCC1)N1C[C@H](CN2CCC(c3cc(C(F)(F)c4ccccc4)n[nH]3)CC2)[C@@H](c2ccccc2)C1` had an IC50 of 2.1 nM. Against the preceding compound, the IC50 is about 4.2-fold higher.

The compound `C=C(Cc1ccccc1)[C@@H](C1CCCCC1)N1C[C@H](CN2CCC(O)(CCCc3ccccc3)CC2)[C@@H](c2ccccc2)C1` showed an IC50 of 3.6 nM.

Regarding `CCc1nc(Cc2ccccc2)oc1C1CCN(C[C@H]2CN([C@H](CC3CCC3)C(=O)O)C[C@@H]2c2ccccc2)CC1`, half-maximal inhibition (IC50) required 0.89 nM.

The compound `O=C(O)[C@@H](CC1CC1)N1C[C@H](CN2CCC(CCC(OCCO)c3ccc(F)cc3)CC2)[C@@H](c2cccc(F)c2)C1` (some centres not stated) showed an IC50 of 3.7 nM.

Compound `CC(C)C[C@H](C(=O)O)N1C[C@H](CN2CCC(CCS(=O)(=O)c3ccc(F)cc3)CC2)[C@@H](c2cccc(F)c2)C1` showed an IC50 of 0.9 nM.

For the compound `O=C(O)[C@@H](CC1CCC1)N1C[C@H](CN2CCC(c3[nH]c(Cc4ccccc4)nc3Cl)CC2)[C@@H](c2ccccc2)C1`, the IC50 was 0.6 nM. This IC50 lies about 1.5-fold lower than the previous one.

`CC(C)(c1ccccc1)c1cc(C2CCN(C[C@H]3CN([C@@H](C(=O)O)C4CCCCC4)C[C@@H]3c3ccccc3)CC2)[nH]n1` returned an IC50 of 11.5 nM. This IC50 is about 19-fold higher than that of the compound before.

As for `CCc1nc(Cc2ccccc2)[nH]c1C1CCN(C[C@H]2CN([C@H](CC3CCC3)C(=O)O)C[C@@H]2c2ccccc2)CC1`, the IC50 was determined as 0.57 nM.

In turn, `Cn1nnc(-c2ccc(CCCC3(O)CCN(C[C@H]4CN(CC5CCCCC5)C[C@@H]4c4ccccc4)CC3)cc2)n1` displayed an IC50 of 0.4 nM. This IC50 and that of the compound before are within 1.5-fold of each other.

As to `O=C(O)[C@@H](CC1CCC1)N1C[C@H](CN2CCC(c3nnc4ccccn34)CC2)[C@@H](c2cccc(F)c2)C1`, half-maximal inhibition (IC50) required 12 nM.

For `CC(C)C[C@H](C(=O)O)N1C[C@H](CN2CCC(CCSc3ccc(F)cc3)CC2)[C@@H](c2cccc(F)c2)C1`, the IC50 was determined as 0.8 nM.

As to `CCn1nc(C(C)(C)c2ccccc2)cc1C1CCN(C[C@H]2CN([C@@H](C(=O)O)C3CCCCC3)C[C@@H]2c2ccccc2)CC1`, the midpoint of inhibition, the IC50, lay at 6.9 nM.

The compound `O=C(O)[C@@H](CC1CCCCC1)N1C[C@H](CN2CCC(CCC(F)(F)c3ccc(F)cc3)CC2)[C@@H](c2ccccc2)C1` gave an IC50 of 0.3 nM.
